Experimental data reported in patent publication US20240226107A1, “UBIQUITIN-SPECIFIC PROTEASE 1 (USP1) INHIBITOR” (SIMCERE ZAIMING PHARMACEUTICAL CO., LTD., priority 2021, published 2024).
Values after ≈ are worked out from the molar mass of the structure shown.

How the values were obtained:
[1] = Solubility (PBS pH 7.4) of compounds from DMSO solution; format: physicochemical; details: aqueous buffer, kinetic from dmso stock, 10 mM DMSO solution into PBS pH 7.4, 25° C., read-out: Calculated solubility
Description: The solubility (PBS pH 7.4) of a compound to be tested was determined by LC/MS/MS. 6 μL of 10 mM DMSO solution of the compound to be tested was mixed with 194 μL of DMSO to prepare 300 μM compound solution. In 490 μL of water and acetonitrile (1:1) containing an internal standard, 5 μL of the solution and 5 μL of PBS pH 7.4 solution were mixed to prepare 3 μM standard concentration solution of the sample to be tested. The dilution factor of the standard solution can be adjusted according to the strength of response signals in LC/MS.
To 485 μL of PBS pH 7.4 solution, 15 μL of 10 mM DMSO solution of the compound to be tested was added. […] After shaking, the stir bar was removed, and the sample was transferred to a filter plate and filtered using a vacuum manifold. In 490 μL of water and acetonitrile (1:1) containing an internal standard, 5 μL of filtrate and 5 μL of PBS pH 7.4 solution were mixed to prepare a solution to be tested. The dilution factor can be adjusted according to the solubility value and the strength of response signals in LC/MS.
The resulting samples were determined by LC/MS/MS. The sample solubility was calculated from peak areas of the solution of the compound to be tested and the standard concentration solution, according to the following equation:
[formula] • [Sample] is the solubility of the sample to be tested; • Area ratiosample is the ratio of the peak area of sample in the sample to be tested to the peak area of the internal standard; • INJ VOL STD is the injection volume of the standard concentration solution; • DFsample is the dilution factor of the solution of the sample to be tested; • [STD] is the concentration of the standard concentration solution; • INJ VOLsample is the injection volume of the solution of the sample to be tested; and • Area ratio STD is the ratio of the peak area of sample in the standard concentration solution to the peak area of the internal standard.

[2] = system: MDA-MB-436 cells;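 also: MDA-MB-436 proliferation over 7 days with compound, viability read as ATP luminescence (CellTiter-Glo), inhibition relative to DMSO-only wells, day 0 signal as background, GI50 from four-parameter fit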
[3] = molecular target: USP1 (Recombinant Human His6-USP1/His6-UAF1 Complex Protein) (Homo sapiens (Human), UniProt O94782); experiment: In vitro activity assay for USP1 (Ub-CHOP2-Reporter deubiquitination assay); format: biochemical; details: 0.5 h incubation at room temperature, read-out: In vitro inhibitory activity of USP1 IC50
Description: The assay kit (Ub-CHOP2-Reporter Deubiquitination Assay Kit) was purchased from Lifesensors, with Cat. No. of PR1101. The assay kit was subpackaged and stored at −80° C.
Each compound to be tested was dissolved with DMSO to 10 mM. The compound and pure DMSO (with a total volume of 50 nL) were loaded to each well of the 384-well plate by using an ECHO instrument to obtain gradient-diluted sample concentrations at different ratios. The enzyme was diluted with a freshly prepared reaction solution (20 mM Tris-HCl (pH 8.0), 2 mM CaCl2, 2 mM β-mercaptoethanol, 0.05% CHAPS, and ddH2O). To each well, 5 μL of diluted enzyme reaction solution was added, then the plate was centrifuged and oscillated to mix the enzyme and the compound, and the mixture was centrifuged again and placed on ice. The kit reporter system and the substrate were diluted with the reaction solution, then 5 μL of diluted liquid was added to each well, and mixed by centrifugation. The mixture was incubated at room temperature for 0.5 h. […] The inhibitory activity (IC50 values) of the compound on enzyme activity was calculated by using a four-parameter Logistic Model. […] A, B, C, and D are four parameters.

[4] = Metabolic stability in vitro in rat hepatocytes; format: in vitro ADME; details: read-out: Intrinsic clearance
Description: The concentration of each compound in the reaction system was measured by LC/MS/MS to calculate the intrinsic clearance of the compounds to be tested, and evaluate the metabolic stability in vitro in rat hepatocytes.
To the incubation plate, 198 μL of 0.5×10^6 cells/mL rat hepatocyte mixture and 2.0 μL of 100 μM compound to be tested or positive control were added to initiate reaction. Incubation was performed at 900 rpm at 37° C. […] Then the mixture was vortex-mixed for 5 min. […] Then 100 μL of supernatant of each compound was transferred to a 96-well sample plate, and 100 μL of purified water was added to dilute the sample. The resulting samples were quantified by ion chromatograms. The residual rate was calculated from peak areas of the compounds to be tested or the positive control. The slope k was determined using Microsoft Excel by linear regression of natural logarithm of the residual rate to the incubation time. The intrinsic clearance (in vitro CLint, μL/min/10^6 cells) was calculated from the slope value according to the following equation: […]

Chain of USP1 (Recombinant Human His6-USP1/His6-UAF1 Complex Protein) (O94782 whole entry): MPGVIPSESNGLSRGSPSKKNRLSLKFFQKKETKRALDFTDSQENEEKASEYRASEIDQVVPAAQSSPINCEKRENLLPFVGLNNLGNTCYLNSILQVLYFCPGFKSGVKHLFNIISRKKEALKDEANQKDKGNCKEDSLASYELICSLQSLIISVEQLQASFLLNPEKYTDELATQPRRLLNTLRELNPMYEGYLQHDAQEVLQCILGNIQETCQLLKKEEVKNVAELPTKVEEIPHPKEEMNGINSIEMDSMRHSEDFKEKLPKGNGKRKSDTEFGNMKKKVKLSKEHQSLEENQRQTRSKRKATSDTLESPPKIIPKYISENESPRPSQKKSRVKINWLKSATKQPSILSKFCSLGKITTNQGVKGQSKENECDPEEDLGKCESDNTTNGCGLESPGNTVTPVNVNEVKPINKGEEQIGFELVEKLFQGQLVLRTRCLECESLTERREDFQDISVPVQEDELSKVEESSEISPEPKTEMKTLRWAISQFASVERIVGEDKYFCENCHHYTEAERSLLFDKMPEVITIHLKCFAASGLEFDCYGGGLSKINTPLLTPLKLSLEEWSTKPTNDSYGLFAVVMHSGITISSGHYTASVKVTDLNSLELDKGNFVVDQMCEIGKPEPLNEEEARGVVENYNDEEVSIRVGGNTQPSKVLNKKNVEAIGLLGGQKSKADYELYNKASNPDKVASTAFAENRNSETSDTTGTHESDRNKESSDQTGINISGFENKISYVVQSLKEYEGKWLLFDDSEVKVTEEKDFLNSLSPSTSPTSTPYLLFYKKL
Chain of USP1 (Recombinant Human His6-USP1/His6-UAF1 Complex Protein) (Q8TAF3 whole entry partner): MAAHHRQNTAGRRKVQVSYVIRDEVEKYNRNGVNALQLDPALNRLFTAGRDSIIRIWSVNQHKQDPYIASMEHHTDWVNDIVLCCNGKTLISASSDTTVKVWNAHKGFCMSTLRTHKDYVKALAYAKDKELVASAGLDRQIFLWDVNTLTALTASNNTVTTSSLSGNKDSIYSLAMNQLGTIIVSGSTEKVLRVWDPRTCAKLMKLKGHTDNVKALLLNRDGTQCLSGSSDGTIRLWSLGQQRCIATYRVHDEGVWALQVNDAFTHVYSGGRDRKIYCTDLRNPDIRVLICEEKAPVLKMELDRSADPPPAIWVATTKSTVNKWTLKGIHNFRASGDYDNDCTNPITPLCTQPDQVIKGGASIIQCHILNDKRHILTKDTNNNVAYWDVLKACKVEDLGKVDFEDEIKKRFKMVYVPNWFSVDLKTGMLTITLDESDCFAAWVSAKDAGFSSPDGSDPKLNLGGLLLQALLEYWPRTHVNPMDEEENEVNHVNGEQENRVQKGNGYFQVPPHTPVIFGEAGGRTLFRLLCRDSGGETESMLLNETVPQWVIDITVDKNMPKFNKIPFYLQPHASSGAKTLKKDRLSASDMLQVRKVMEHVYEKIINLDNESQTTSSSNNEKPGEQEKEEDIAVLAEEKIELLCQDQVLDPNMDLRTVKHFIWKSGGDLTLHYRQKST

Row | SMILES | solubility at 2 h [1] [µM] | GI50 [2] [nM] | IC50 [3] [nM] | hepatocyte CLint at 1 μM [4] [µL/min/1e6 cells]
1 | COc1ncnc(C2CC2)c1-c1ncc2c(n1)N(Cc1ccc(-c3nc(C(F)(F)F)cn3C)cn1)CCO2 [Compound 16] | 284 (≈ 149 µg/mL) | 1080 | – | –
2 | COc1ncnc(C2CC2)c1-c1ncc2c(n1)N(Cc1ccc(-c3nc(C(F)(F)F)cn3C)cc1)CC(=O)N2C1CC1 [Compound 24, 2-(4-cyclopropyl-6-methoxypyrimidin-5-yl)-5-cyclopropyl-8-(4-(1-methyl-4-(trifluoromethyl)-1H-imidazol-2-yl)benzyl)-7,8-dihydropteridin-6(5H)-one] | 228 (≈ 131 µg/mL) | 86.2 | 23.6 | –
3 | COc1ncnc(C2CC2)c1-c1ncc2c(n1)N(Cc1ccc(-c3nc(C(F)(F)F)cn3C)cc1)C(C)C(=O)N2C (stereo not drawn) [Compound 26, 2-(4-cyclopropyl-6-methoxypyrimidin-5-yl)-5,7-dimethyl-8-(4-(1-methyl-4-(trifluoromethyl)-1H-imidazol-2-yl)benzyl)-7,8-dihydropteridin-6(5H)-one] | 115 (≈ 64.9 µg/mL) | 41.1 | 41.4 | 4.2
4 | COc1ncnc(C2CC2)c1-c1ncc2c(n1)N(Cc1ccc(-c3nc(C(F)(F)F)cn3C(F)F)cc1)CC(=O)N2C [Compound 28, 2(4-cyclopropyl-6-methoxypyrimidin-5-yl)-8-((4-(1-(difluoromethyl)-4-(trifluoromethyl)-1H-imidazol-2-yl)phenyl)methyl)-5-methyl-7,8-dihydropteridin-6(5H)-one] | 73 (≈ 42.8 µg/mL) | 51.1 | 33.7 | 6.3
5 | COc1ncnc(C2CC2)c1-c1ncc2c(n1)N(CC1CCN(c3nc(C(F)(F)F)cn3C)CC1)CCO2 [Compound 30, 2-(4-cyclopropyl-6-methoxypyrimidin-5-yl)-8-((1-(1-methyl-4-(trifluoromethyl)-1H-imidazol-2-yl)piperidin-4-yl)methyl)-7,8-dihydro-6H-pyrimido[5,4-b][1,4]oxazine] | 225 (≈ 119 µg/mL) | 161 | 44.7 | –
6 | CCN1C(=O)CN(Cc2ccc(-c3nc(C(F)(F)F)cn3C)cc2)c2nc(-c3c(OC)ncnc3C3CC3)ncc21 [Compound 33, 2-(4-cyclopropyl-6-methoxypyrimidin-5-yl)-5-ethyl-8-(4-(1-methyl-4-(trifluoromethyl)-1H-imidazol-2-yl)benzyl)-7,8-dihydropteridin-6(5H)-one] | – | 53.8 | 31.3 | 4.3
7 | CCn1cc(C(F)(F)F)nc1-c1ccc(CN2CC(=O)N(C)c3cnc(-c4c(OC)ncnc4C4CC4)nc32)cc1 [Compound 40, 2-(4-cyclopropyl-6-methoxypyrimidin-5-yl)-5-methyl-8-(4-(1-ethyl-4-(trifluoromethyl)-1H-imidazol-2-yl)benzyl)-7,8-dihydropteridin-6(5H)-one] | 122 (≈ 68.9 µg/mL) | 22.6 | 26.9 | –
8 | COc1ncnc(C2CC2)c1-c1ncc2c(n1)N(Cc1ccc(-c3nc(C(F)(F)F)cn3C(C)C)cc1)CC(=O)N2C [Compound 41, 2-(4-cyclopropyl-6-methoxypyrimidin-5-yl)-5-methyl-8-(4-(1-isopropyl-4-(trifluoromethyl)-1H-imidazol-2-yl)benzyl)-7,8-dihydropteridin-6(5H)-one] | 88 (≈ 50.9 µg/mL) | 28.4 | 19 | –
9 | CCN1C(=O)CN(Cc2ccc3c(c2)CCCn2cc(C(F)(F)F)nc2-3)c2nc(-c3c(OC)ncnc3C3CC3)ncc21 [Compound 46, 2-(4-cyclopropyl-6-methoxypyrimidin-5-yl)-5-ethyl-8-((2-(trifluoromethyl)-6,7-dihydro-5H-benzo[c]imidazo[1,2-a]azepin-9-yl)methyl)-7,8-dihydropteridin-6(5H)-one] | 50 (≈ 29.5 µg/mL) | – | – | –
10 | COc1ncnc(C2CC2)c1-c1ncc2c(n1)N(Cc1cc(F)c(-c3nc(C(F)(F)F)cn3C)c(F)c1)CC(=O)N2C [Compound 66, 2-(4-cyclopropyl-6-methoxypyrimidin-5-yl)-5-methyl-8-(3,5-difluoro-4-(1-methyl-4-(trifluoromethyl)-1H-imidazol-2-yl)benzyl)-7,8-dihydropteridin-6(5H)-one] | 115 (≈ 67.5 µg/mL) | 29.6 | 27.2 | –
11 | COc1ncnc(C2CC2)c1-c1ncc2c(n1)N(Cc1ccc(-c3nc(C(F)(F)F)cn3C)c(F)c1)C(C)C(=O)N2C (stereo not drawn) [Compound 70, 2-(4-cyclopropyl-6-methoxypyrimidin-5-yl)-8-(3-fluoro-4-(1-methyl-4-(trifluoromethyl)-1H-imidazol-2-yl)benzyl)-5,7-dimethyl-7,8-dihydropteridin-6(5H)-one] | 98 (≈ 57.1 µg/mL) | 93.1 | 37.9 | –
12 | COc1ncnc(C2CC2)c1-c1ncc2c(n1)N(Cc1ccc(-c3nc(C(F)(F)F)cn3C)cc1)C(=O)OC2 [Compound 80, 7-(4-cyclopropyl-6-methoxypyrimidin-5-yl)-1-(4-(1-methyl-4-(trifluoromethyl)-1H-imidazol-2-yl)benzyl)-1,4-dihydro-2H-pyrimido[4,5-d][1,3]oxazin-2-one] | 72 (≈ 38.7 µg/mL) | – | 11.7 | –
13 | COc1ncnc(C2CC2)c1-c1ncc2c(n1)N(Cc1ccc(-c3nc(C(F)(F)F)cn3C)c(F)c1)CC(=S)N2C [Compound 83, 2-(4-cyclopropyl-6-methoxypyrimidin-5-yl)-8-(3-fluoro-4-(1-methyl-4-(trifluoromethyl)-1H-imidazol-2-yl)benzyl)-5-methyl-7,8-dihydropteridine-6(5H)-thione] | – | 23 | 48.5 | –
